The values that follow come from US20210038668A1, “TRADITIONAL CHINESE MEDICINE COMPOSITION FOR PREVENTING AND/OR TREATING ISCHEMIC REPERFUSION INJURY” (TASLY PHARMACEUTICAL GROUP CO., LTD., priority 2018, published 2021).

In test [1] the test system is ZO-1. Put plainly: Western blotting of ZO-1, cortex of ischemic penumbra. It counts as in vivo, C57BL/6 mice. Conditions: brain tissue 24 hours after administration, sham = 1.00; tPA 10 mg/kg alone; T541 20 mg/kg + tPA 10 mg/kg. As to the method:
After reperfused for 24 hours, mice were perfused by normal saline; Western blotting analysis was conducted to the penumbra field of infarcted right cerebral cortex. After perfused, mice brain tissue was taken out; cerebellum and prefrontal lobe were cut off; the brain tissue of right brain close to 1 cm of the central joint of left and right hemispheres along the sagittal view; infarcted penumbra field of the rest tissues was cut off along an 45° angle; the cerebral cortex of the penumbra field was peeled off and preserved at low temperature. Right cerebral cortex was taken and added 1×RIPA lysate and a Cocktail protease inhibitor (1:100, Cell Signaling Technology, US) for full pyrolysis and ultrasonic treatment, and then 17000 g were centrifuged for 30 minutes. Supernatant was taken and added 5×loading buffer by volume, boiled for 20 minutes in boiling water, and then preserved at −80° C. Excessive supernatant was taken out and quantified by a BCA protein quantification liquor (ThermoScientific, US) to measure absorbance value at 560 nm of ELIASA and to calculate the protein concentration according to a standard curve. […] The density of electrophoretic strips was analyzed by an image analysis software Quantityone. […]
(In general: A western blot detects proteins with antibodies after separation by electrophoresis.)

In test [2] the test system is VE-cadherin. The test is described as follows: Western blotting of VE-cadherin, endothelial cells after hypoxia/reoxygenation. Type of test: cell-based. The following applies: rat brain endothelial cells, hypoxia 4.5 h/reoxygenation 3 h; tPA 20 mcg/ml alone (model group); T541 400 mcg/ml + tPA 20 mcg/ml. From the text:
(§1) Establishment of rat brain endothelial cell H/R model: rat brain endothelial cells were purchased from ATCC, and then subcultured to 5-6 generations in normal conditions for further experiment. […]

In test [3] the test system is ATP, ADP and AMP of cerebral cortex in ischemic penumbra. Put plainly: ELISA of ATP, ADP and AMP in brain tissue. The following applies: brain tissue 24 hours after administration. It counts as in vivo, C57BL/6 mice. An excerpt:
(§2) To compare the therapeutical effect on reperfusion injury caused by tPA thrombolysis between the traditional Chinese medicinal composition of the present invention and each ingredient (total saponins of Astragalus, the experiment was divided into the following group (tPA is combined with T541, individual ingredient thereof and compatibility of any two ingredients) specifically as follows: tPA+total saponins of Astragalus (tPA+HQ), tPA+ salvianolic acids (tPA+DS), tPA+Panax notoginseng saponins (tPA+SQ), tPA+ total saponins of Astragalus+salvianolic acids (tPA+HQ+DS), tPA+ total saponins of Astragalus+Panax notoginseng saponins (tPA+HQ+SQ), tPA+ salvianolic acids+Panax notoginseng saponins (tPA+DS+SQ) and tPA+T541. Normal saline served as an isovolumetric control. The usage number in each group is 6.
(§3) ELISA adsorption kit was used to measure the change on the content of MDA, 8-hydroxyl-2′-deoxyguanosine (8-OHdG), adenosine triphosphate (ATP), adenosine diphosphate (ADP) and adenosine monophosphate (AMP) in the penumbra field of brain tissue cortex of the mode, and the change on the activity of mitochondrial complexes I, II, IV and V. 6 samples were used to repeat the independent experiment for at least three times for each group of data.
In general terms: An ELISA detects its analyte on a solid surface through an enzyme-linked reagent.

In test [4] the test system is MDA. The test is described as follows: ELISA of MDA in brain tissue. It counts as in vivo, C57BL/6 mice. The following applies: brain tissue 24 hours after administration; tPA 10 mg/kg alone or + T541 20 mg/kg or ingredients at Table 7 doses.
Description: as §2, §3

For test [5], the system named is Bcl-2. The test is described as follows: Western blotting of Bcl-2, endothelial cells after hypoxia/reoxygenation. It counts as cell-based. Conditions: rat brain endothelial cells, hypoxia 4.5 h/reoxygenation 3 h; tPA 20 mcg/ml alone (model group); T541 400 mcg/ml + tPA 20 mcg/ml.
Description: as §1

Where [6] appears, read: tPA 10 mg/kg alone or + T541 20 mg/kg or ingredients at Table 7 doses.

With “tPA: tissue-type plasminogen activator (tPA) for thrombolysis”, in test [1], the ZO-1/β-actin is recorded as 0.42 ± 0.05. Besides, the VE-cadherin/β-actin in test [2] amounted to 0.58 ± 0.07. Further, in test [3] (setting [6]), the ADP is given as 2.51 ± 0.24, the ADP/ATP was 2.45 ± 0.10, the AMP is on record as 2.66 ± 0.32 and the AMP/ATP is recorded as 2.68 ± 0.34. Besides, in test [3] (tPA 10 mg/kg alone or + T541 20 mg/kg or ingredients at Table 7 doses (Astragalus saponins 10, Panax notoginseng saponins 2, salvianolic acids 8, in pairs 2 mg/kg)), the ATP came to 1.05 ± 0.13. Moreover, the MDA in test [4] was determined as 30.08 ± 2.90. For the same substance, in test [5], the Bcl-2 is reported as 0.69 ± 0.12.
